Values of other authors, collected in patent US20170176475A1, “NOVEL METHODS AND KITS FOR DETECTING A RIFAMYCIN, OR DERIVATIVE OR ANALOGUE THEREOF” (DREXEL UNIVERSITY, priority 2014, published 2017).

Compound: CO[C@H]1/C=C/O[C@@]2(C)Oc3c(C)c(O)c4c(O)c(c(/C=N/N5CCN(C)CC5)c(O)c4c3C2=O)NC(=O)/C(C)=C\C=C\[C@H](C)[C@H](O)[C@@H](C)[C@@H](O)[C@@H](C)[C@H](OC(C)=O)[C@@H]1C [rifampicin, (7S,9E,11S,12R,13S,14R,15R,16R,17S, 18S,19E,21Z)-2,15,17,27,29-pentahydroxy-11-methoxy-3,7,12,14,16,18,22-heptamethyl-26-{(E)-[(4-methylpiperazin-1-yl)imino]methyl}-6,23-dioxo-8,30-dioxa-24-azatetracyclo [23.3.1.1^4,7.0^5,28]triaconta-1(28),2,4,9,19,21,25(29),26-octaen-13-yl acetate]
- time by which nearly all the drug in the bile is present in the deacetylated form (bile, normal metabolizing patients): ≤ 6 h
- time to peak plasma drug concentrations after intake (orally administered): two to four
